Assay results taken from ChEMBL document CHEMBL1157426, “Diazen-1-ium-1,2-diolated nitric oxide donor ester prodrugs of 1-(4-methanesulfonylphenyl)-5-aryl-1H-pyrazol-3-carboxylic acids: synthesis, nitric oxide release studies and anti-inflammatory activities” (Bioorg Med Chem, 2008).

Legend:
[1] = Induction of nitric oxide release at pH 7.4 PBS after 1.5 hrs; assay type: physicochemical; conditions: buffer, pH 7.4, 1.5 h
Serum = assay: Induction of nitric oxide release in rat serum at pH 7.4 after 1.5 hrs; assay type: cell-free; conditions: pH 7.4, 1.5 h
[2] = biological target: Prostaglandin G/H synthase 1 (Homo sapiens) (UniProt P23219); conditions: at 100 µM
Sequence of Prostaglandin G/H synthase 1 (Homo sapiens) (P23219 whole entry): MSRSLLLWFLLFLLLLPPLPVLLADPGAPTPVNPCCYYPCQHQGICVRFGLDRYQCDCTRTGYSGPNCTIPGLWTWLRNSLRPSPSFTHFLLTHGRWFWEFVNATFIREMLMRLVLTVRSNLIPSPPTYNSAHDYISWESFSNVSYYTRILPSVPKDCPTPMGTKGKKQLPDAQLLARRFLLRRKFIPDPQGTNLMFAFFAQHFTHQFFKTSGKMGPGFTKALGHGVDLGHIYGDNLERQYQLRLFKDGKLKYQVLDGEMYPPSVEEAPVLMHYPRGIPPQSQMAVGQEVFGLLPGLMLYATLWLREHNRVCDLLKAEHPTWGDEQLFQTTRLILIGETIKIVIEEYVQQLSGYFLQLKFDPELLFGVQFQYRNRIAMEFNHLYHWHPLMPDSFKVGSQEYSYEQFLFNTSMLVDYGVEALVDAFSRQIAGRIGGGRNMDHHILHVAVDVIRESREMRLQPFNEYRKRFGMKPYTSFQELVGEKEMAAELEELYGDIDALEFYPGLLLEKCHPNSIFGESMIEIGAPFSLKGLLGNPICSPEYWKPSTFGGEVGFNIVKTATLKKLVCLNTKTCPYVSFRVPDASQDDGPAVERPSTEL
Description: Inhibition of COX1 at 100 uM

[3] = biological target: T1, Prostaglandin G/H synthase 2 (Homo sapiens) (UniProt P35354); conditions: at 100 µM
T1 sequence (whole entry): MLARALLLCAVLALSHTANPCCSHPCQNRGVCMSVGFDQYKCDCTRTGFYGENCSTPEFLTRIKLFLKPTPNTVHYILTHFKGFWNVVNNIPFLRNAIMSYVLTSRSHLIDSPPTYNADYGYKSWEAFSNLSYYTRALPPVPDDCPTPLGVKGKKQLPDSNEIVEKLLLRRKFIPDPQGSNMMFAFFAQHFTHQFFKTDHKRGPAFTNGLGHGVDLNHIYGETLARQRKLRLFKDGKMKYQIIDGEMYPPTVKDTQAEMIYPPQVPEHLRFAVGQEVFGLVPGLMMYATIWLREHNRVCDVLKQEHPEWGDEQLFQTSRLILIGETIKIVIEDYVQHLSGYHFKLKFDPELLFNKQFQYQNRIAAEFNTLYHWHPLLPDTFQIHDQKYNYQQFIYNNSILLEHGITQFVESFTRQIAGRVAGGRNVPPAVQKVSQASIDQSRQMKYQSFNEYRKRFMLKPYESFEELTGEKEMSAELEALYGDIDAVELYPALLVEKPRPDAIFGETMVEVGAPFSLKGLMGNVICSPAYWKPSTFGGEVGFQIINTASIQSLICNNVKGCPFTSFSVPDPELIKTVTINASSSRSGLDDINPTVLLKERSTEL
Description: Inhibition of COX2 at 100 uM

Rattus norvegicus = assay: Antiinflammatory activity in po dosed rat assessed as inhibition of carrageenan-induced paw edema after 3 hrs; assay type: functional; conditions: read-out: ID50 (the source's name)

Compound: CC(=O)OCO/N=[N+](\[O-])N(C)CCOC(=O)c1cc(-c2ccc(C)cc2)n(-c2ccc(S(C)(=O)=O)cc2)n1
- Activity [1]: 9.2%
- Activity (Serum): 70.9%

Compound: CCOC(=O)c1cc(-c2ccc(C)cc2)n(-c2ccc(S(N)(=O)=O)cc2)n1
- inhibition [2]: 66%
- inhibition [3]: 43%

Compound: Cc1ccc(-c2cc(C(=O)O)nn2-c2ccc(S(C)(=O)=O)cc2)cc1
- ED50 (Rattus norvegicus): 85.2 mg/kg

Compound: CS(=O)(=O)c1ccc(-n2nc(C(=O)O)cc2-c2ccc(F)cc2)cc1
- ED50 (Rattus norvegicus): 104 mg/kg

Compound: CC(=O)OCO/N=[N+](\[O-])N(C)CCOC(=O)c1cc(-c2ccccc2)n(-c2ccc(S(C)(=O)=O)cc2)n1
- Activity [1]: 7.7%
- Activity (Serum): 67.5%

Compound: CS(=O)(=O)c1ccc(-n2nc(C(=O)O)cc2-c2ccccc2)cc1
- ED50 (Rattus norvegicus): 104 mg/kg

Compound: CC(=O)OCO/N=[N+](\[O-])N(C)CCOC(=O)c1cc(-c2ccc(F)cc2)n(-c2ccc(S(C)(=O)=O)cc2)n1
- Activity [1]: 9.3%
- Activity (Serum): 73.6%

Compound: CN(CCO)/[N+]([O-])=N/[O-].[Na+]
- Activity [1]: 84.5%
- Activity (Serum): 85%
